Experimental findings from PMC12473123, “Structure–Function Insights into Quinuclidine-3-One BisQACs: Synthesis, Modulation of Bacterial Resistance, Structure–Activity Relationship, and Biological Profiling” (Pharmaceuticals, 2025) are described below.

Bounds are passed on as bounds.

Data set [1] concerns Bacillus cereus ATCC 14579. Put plainly: Broth microdilution MIC. As to conditions: ATCC14579, read-out: Minimum Inhibitory Concentrations (MIC), Bacillus cereus ATCC 14579. The class given is cell-based.
Data set [2] has as its system Enterococcus faecalis ATCC 29212. Nature of the data set: Broth microdilution MIC. Format: cell-based. The note with it: Enterococcus faecalis, ATCC29212, read-out: Minimum Inhibitory Concentrations (MIC), Enterococcus faecalis ATCC 29212.
In data set [3] the test system is HEK293 cells. Nature of the data set: Cytotoxicity MTS assay. Format: cell-based, human. The note with it: Homo sapiens, HEK293, 48 h, read-out: IC50 HEK293. The protocol:
(§1) The cytotoxic potential of the selected drug candidates was evaluated using the CellTiter 96® AQueous One Solution Cell Proliferation Assay (Promega, Madison, WI, USA), following the manufacturer’s protocol. Human cell lines RPE1 and HEK293 were cultured at 37 °C in a humidified incubator with 5% CO2. Test compounds were dissolved in the appropriate growth medium and serially diluted across a range of concentrations in 96-well microtiter plates. Each well was seeded with 5000 cells and incubated for 48 h under standard culture conditions. Following this incubation period, 20 µL of MTS reagent was added to each well, and the plates were further incubated for 3 h to allow for color development. Absorbance was measured at 490 nm using a microplate reader to determine cell viability. Cytotoxicity was quantified as the half-maximal inhibitory concentration (IC50), defined as the concentration of compound that reduced cell viability by 50%. […] IC50 values were calculated using GraFit 6.0 software by plotting compound concentration against absorbance and fitting the data to a sigmoidal dose–response curve.

In data set [4] the test system is RPE1 cells. Nature of the data set: Cytotoxicity MTS assay. The class given is cell-based, human. As to conditions: Homo sapiens, RPE-1, 48 h, read-out: IC50 RPE1. The protocol:
as §1

For data set [5], the system named is panel of clinically relevant bacterial strains. Put plainly: Broth microdilution MIC, summary over the panel. As to conditions: Staphylococcus aureus (including MRSA), Listeria monocytogenes, Escherichia coli. Format: cell-based.
The test system of data set [6] is Staphylococcus aureus ATCC 25923. Nature of the data set: Flow cytometry cell viability (TO/PI staining). The note with it: at the onset of treatment, concentration not given. Format: cell-based. The protocol: To gain further insights into the effects of the test compounds on bacterial viability, Staphylococcus aureus ATCC 25923 was analyzed using flow cytometry (NovoCyte Advanteon, Agilent Technologies, Santa Clara, CA, USA). Two independent overnight cultures were diluted 1:10 in fresh Mueller–Hinton broth (MHB) and incubated at 37 °C with shaking at 220 rpm until reaching the early exponential growth phase. Cells were then harvested by centrifugation (4500× g, 10 min, room temperature). One cell pellet was resuspended in a staining buffer composed of phosphate buffer (pH 7.4) supplemented with 1 mM EDTA and 0.1% Tween 20. […] Both preparations were adjusted to a final density of 1 × 10^6 CFU/mL and served as controls for fluorescence compensation alongside an unstained bacterial population. Bacterial viability was assessed using the BD^TM Cell Viability Kit (BD Biosciences, San Jose, CA, USA), which employs thiazole orange (TO) and propidium iodide (PI) for dual fluorescence labeling. […] Flow cytometric analysis enabled the discrimination of live (TO+/PI−), damaged (TO+/PI+), and dead (TO−/PI+) bacterial populations based on their fluorescence profiles, allowing for a time-resolved evaluation of compound-induced cytotoxicity.

Turning to `CCCCCCCCCCCCCCCCNC1C[N+]2(CCC[N+]34CCC(CC3)C(NCCCCCCCCCCCCCCCC)C4)CCC1CC2` (racemic) [2(QC16)3, (±)-1,1′-(Propane-1,3-diyl) bis(3-(hexadecylamino)quinuclidinium) dibromide], the MIC in data set [1] and in data set [2] was over 75 µM in each case. In addition, the IC50 in data set [3] is 21 µM; in data set [4], 69 µM.
In data set [5], `CCCCCCCCCCCCCCCCNC1C[N+]2(CCCCCC[N+]34CCC(CC3)C(NCCCCCCCCCCCCCCCC)C4)CCC1CC2` (racemic) [2(QC16)6, (±)-1,1′-(Hexane-1,6-diyl) bis(3-(hexadecylamino)quinuclidinium) dibromide] had an MIC of 5 to 38 µM. In data set [6], the “cells with signs of membrane damage (TO+/PI+)” value is “over 80%” and the “fully viable cells (TO+/PI−)” value is reported as under 5%. Besides, in data set [3], the IC50 worked out at 7 µM. Besides, in data set [4], the IC50 is 5 µM.
